Test results published in article PMC7867085, “In Vitro and In Vivo Antitumor Activity of Indolo[2,3-b] Quinolines, Natural Product Analogs from Neocryptolepine Alkaloid” (Molecules, 2021).
Entries after “also recorded” stand apart in the source; their conditions may differ.

Experiments:
[1] = test system: splenic lymphocytes of normal mice; experiment: Splenic lymphocyte count in normal mice; format: in vivo, Swiss female albino mice; conditions: 100 mg/kg SC for 5 days
Protocol: The difference in the number of splenic lymphocytes between the study groups, including groups given indoloquinoline derivatives, control group, and groups with a tumor, were evaluated. Normal mice administered indoloquinoline derivatives at a dose of 100 mg/kg for 5 constitutive days subcutaneously reported statistical similarities with the untreated normal mice group regarding the count of splenic lymphocytes (Table 6).
Under sterile conditions, the spleens were eliminated, and the single cell suspension was made in RPMI 1640 medium. Splenic lymphocytes were purified as described earlier. Viable splenic lymphocytes were counted in a hemocytometer by trypan blue exclusion test and used for further analysis.
During the study, female Swiss albino mice (normal, treated, and untreated) were anesthetized. Under sterile conditions, after scattering 70% alcohol on the abdominal region, the spleen was removed and then injected with a minor amount of PBS. Spleen was pressed across the fine mesh of the tissue grinder. After centrifuging the produced cell suspension at 1000 rpm for 5 min, the supernatant was discarded, and the cells were washed at room temperature by centrifugation in PBS twice. Trypan blue extrusion method was used to evaluate cell viability, and a phase-contrast microscope was used for cell counting. The experiment was done in tripartite.

EAC solid tumor = experiment: Histopathological examination of tumor sections (H and E); format: in vivo, mice; conditions: for tumor section histopathology (necrosis): EAC bearing mouse, H and E × 200, Figure 3; for tumor cell death (histopathology): EAC solid tumor, compared with other molecules
Protocol: Results of the treated group and that of the positive control group are illustrated in (Figure 3 and Figure 4). […] At the same time, the count of mitotic cells was less in the studied analogs 6a, 6b, 6c and 6d as measured up to that of the positive control group.
Each tumor or liver sample for each mouse was separated and kept in 10% formalin solution and dehydrated in a graded alcohol series. Each specimen was treated with xylene and then inserted in paraffin blocks. The specimen was cut into sections, the thickness of each section is five-micron, hematoxylin, and eosin (H and E) were added for staining. The stained liver specimen was used to assess the degree of degradation and necrosis using a reported scaling system; the scaling system use numbers from 0 to 3 to reflect necrosis severity. Starting from 0, which indicates no necrosis and moves to mild, moderate, and severe necrosis indicated by 1, 2, and 3, respectively. Mild and moderate stages are defined as focal and multifocal necrosis or degradation of hepatocytes, respectively, while severe is characterized by local immense, spread out necrosis or damaged liver cells. Tumor specimen stained with H and E were used to evaluate the severity and percentage of necrosis by the same previously mentioned scaling system.
H and E-stained slides of tumor specimens were used also used to calculate the H score as well as the mitosis counting and apoptotic tumor cell counting, ten arbitrarily chosen microscopic fields were used for each mitosis and apoptotic tumor cell counting, this was considered as examining at least 1000 tumor cells. High magnification (400×) was used for microscopic examination.

[2] = test system: Ehrlich ascites carcinoma (EAC) cells; experiment: In vitro cytotoxic activity, trypan blue dye exclusion; format: cell-based, mice; conditions: 3 h incubation at 37 °C
Protocol: The synthesized indoloquinoline analogs 6a–d were evaluated for their cytotoxic activity against Ehrlich ascites carcinoma (EAC), as depicted in Table 1. The EAC cells used in this study were supplied by National Cancer Institute, Cairo, Egypt. The cells were maintained in vivo in Swiss Albino female mice by intraperitoneal transplantation (0.2 mL of 2 × 10^6 cells/mL). EAC cells were aspirated from the peritoneal cavity of mice, washed with saline and given intraperitoneally to develop ascites tumor. Trypan blue dye exclusion technique was used to figure the viability percentage of EAC cells to assay the cytotoxic activity of the studied compounds. In brief, under completely sterile conditions, EAC cells were separated away from the mice abdomens. Hank’s balanced salt solution (HBSS) was used to wash the separated cells. Cells were put in a cooling centrifuge at 1500 rpm for 15 min; the produced granules were put back into suspension using HBSS, the mentioned steps were done in triplicate. Finally, a measured volume of RPMI 1640 was used to suspend the cells, followed by the addition of 10% fetal bovine serum, 10 µg/mL streptomycin and 100 U/mL penicillin. Consequently, the cell count was adjusted to 2 × 10^6 cells/mL from the prepared diluted cell suspension 0.2 mL was titrated in 96 flat-bottomed tissue culture plates. Serial concentrations of each tested compound were prepared and added in triplicate and incubated at 37 °C for 3 h in a 5% CO2 atmosphere. The IC50 parameter (half-maximum inhibitory concentration) was calculated using Trypan blue dye exclusion test, and then the cytotoxic effect was evaluated using control EAC cells. Thalidomide was used as a reference drug alongside the parent natural compound neocryptolepine I for comparison. Thalidomide was used as a reference drug because its mechanism of action is expected to be similar to the mechanism of action of neocryptolepine analogs as its anticancer action may be based on its antiangiogenic action, resulting from specific DNA intercalation as well as induce cell cycle arrest.
The percentage of EAC cell death of the synthesized derivatives was evaluated by trypan blue exclusion assay. In addition, the compounds 6a–d, as well as the reference drug thalidomide and the parent natural compound neocryptolepine (I), were evaluated through eight concentration levels. It is worth noting that this cytotoxicity was dose-dependent when compared to the reference drug, thalidomide and the control, which was treated with the corresponding dilutions of DMSO.
As a preparation step to perform cytotoxicity assay against the EAC cell line, thalidomide, parent neocryptolepine and the indoloquinoline compounds a 6a, 6b, 6c and 6d were dissolved in DMSO/saline (0.3:0.7) to prepare a solution of 10 mmol concentration. The stock solutions were stored at 4 °C and were used all over the assay. EAC cells were supplied by the National Cancer Institute, Cairo, Egypt. The cells were maintained in vivo in Swiss albino female mice by intraperitoneal transplantation (0.2 mL of 2 × 10^6 cells/mL). EAC cells were aspirated from the peritoneal cavity of mice, washed with saline, and given intraperitoneally to develop ascites tumor.
Trypan blue dye exclusion technique was used to figure the viability percentage of EAC cells to assay the cytotoxic activity of the studied compounds. In brief, under completely sterile conditions, EAC cells were separated away from the mice’s abdomen. Hank’s balanced salt solution (HBSS) was used to wash the separated cells. The cells were put in a cooling centrifuge at 1500 rpm for 15 min; the produced granules were put back into suspension using HBSS, the mentioned steps were done in triplicate. Finally, a measured volume of RPMI 1640 was used to suspend the cells, followed by the addition of 10% fetal bovine serum, 10 µg/mL streptomycin and 100 U/mL penicillin and the cell count was adjusted to 2 × 10^6 cells/mL. […]

Molecule	Splenic Lymphocyte Number [1]	antimitotic effect (count of mitotic cells) (EAC solid tumor; EAC bearing mice, H and E)	tumor section histopathology (necrosis) (EAC solid tumor)	tumor cell death (histopathology) (EAC solid tumor)	IC50 ([2]; Mus musculus, Ehrlich) [nM]	IC50 [2] [nM]
Cn1c2nc3ccccc3c-2c(Nc2ccc(Br)cc2F)c2ccccc21 [Compound 6a, N-(4-Bromo-2-fluorophenyl)-5-methyl-5H-indolo[2,3-b] Quinolin-11-amine]	13.3 ± 1.08 10^6/mL	greatest antimitotic effect	massive, coagulated necrosis (Ne) with minimal residual malignant cells	supremely cell death percentage and apoptosis	0.17	
5-Methyl-N-(4-methylpiperazin-1-yl)-5H-indolo[2,3-b] Quinolin-11-amine [Compound 6d]	12.8 ± 0.04 10^6/mL		massive geographic coagulative necrosis (Ne) surrounded by viable tumor cells			0.15
Cn1c2nc3ccccc3c-2c(NCCc2c[nH]c3ccccc23)c2ccccc21 [Compound 6b, N-(2-(1H-Indol-3-yl)ethyl)-5-methyl-5H-indolo[2,3-b] Quinolin-11-amine]	12.97 ± 0.65 10^6/mL		extensive necrosis (Ne) with minimal viable malignant cells	supremely cell death percentage and apoptosis; also recorded: highest effect in tumor cell death without harming liver cells	0.064	
5(5-Methyl-5H-indolo[2,3-b] quinolin-11-ylamino) Pyrimidine-2,4(1H,3H)-dione [Compound 6c]	13.29 ± 1.12 10^6/mL		massive area of coagulative necrosis (Ne) with viable tumor cells			0.33
